According to patent US11786503B2, “Pharmaceutical compositions and methods for countering chemotherapy induced cardiotoxicity” (Auransa Inc., priority 2016, dated 2023):
Where two headings read alike, the source gives them in different places. Each block holds one molecule with its values, some of them ahead of it.

What was measured:
[1] = molecular target: T1, TOPOIIα (Homo sapiens, UniProt P11388); experiment: kDNA decatenation assay, TOPOIIα; assay type: biochemical; conditions: for TOPOIIα inhibition, in words: decatenation assay;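 on all read-outs here: kDNA incubated with one unit of TOPOIIα at 37 °C for 30 min, decatenated product resolved on 1% agarose gel, inhibition from relative band intensity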
T1 construct: purchased Inspiralis
T1 sequence (P11388 whole entry): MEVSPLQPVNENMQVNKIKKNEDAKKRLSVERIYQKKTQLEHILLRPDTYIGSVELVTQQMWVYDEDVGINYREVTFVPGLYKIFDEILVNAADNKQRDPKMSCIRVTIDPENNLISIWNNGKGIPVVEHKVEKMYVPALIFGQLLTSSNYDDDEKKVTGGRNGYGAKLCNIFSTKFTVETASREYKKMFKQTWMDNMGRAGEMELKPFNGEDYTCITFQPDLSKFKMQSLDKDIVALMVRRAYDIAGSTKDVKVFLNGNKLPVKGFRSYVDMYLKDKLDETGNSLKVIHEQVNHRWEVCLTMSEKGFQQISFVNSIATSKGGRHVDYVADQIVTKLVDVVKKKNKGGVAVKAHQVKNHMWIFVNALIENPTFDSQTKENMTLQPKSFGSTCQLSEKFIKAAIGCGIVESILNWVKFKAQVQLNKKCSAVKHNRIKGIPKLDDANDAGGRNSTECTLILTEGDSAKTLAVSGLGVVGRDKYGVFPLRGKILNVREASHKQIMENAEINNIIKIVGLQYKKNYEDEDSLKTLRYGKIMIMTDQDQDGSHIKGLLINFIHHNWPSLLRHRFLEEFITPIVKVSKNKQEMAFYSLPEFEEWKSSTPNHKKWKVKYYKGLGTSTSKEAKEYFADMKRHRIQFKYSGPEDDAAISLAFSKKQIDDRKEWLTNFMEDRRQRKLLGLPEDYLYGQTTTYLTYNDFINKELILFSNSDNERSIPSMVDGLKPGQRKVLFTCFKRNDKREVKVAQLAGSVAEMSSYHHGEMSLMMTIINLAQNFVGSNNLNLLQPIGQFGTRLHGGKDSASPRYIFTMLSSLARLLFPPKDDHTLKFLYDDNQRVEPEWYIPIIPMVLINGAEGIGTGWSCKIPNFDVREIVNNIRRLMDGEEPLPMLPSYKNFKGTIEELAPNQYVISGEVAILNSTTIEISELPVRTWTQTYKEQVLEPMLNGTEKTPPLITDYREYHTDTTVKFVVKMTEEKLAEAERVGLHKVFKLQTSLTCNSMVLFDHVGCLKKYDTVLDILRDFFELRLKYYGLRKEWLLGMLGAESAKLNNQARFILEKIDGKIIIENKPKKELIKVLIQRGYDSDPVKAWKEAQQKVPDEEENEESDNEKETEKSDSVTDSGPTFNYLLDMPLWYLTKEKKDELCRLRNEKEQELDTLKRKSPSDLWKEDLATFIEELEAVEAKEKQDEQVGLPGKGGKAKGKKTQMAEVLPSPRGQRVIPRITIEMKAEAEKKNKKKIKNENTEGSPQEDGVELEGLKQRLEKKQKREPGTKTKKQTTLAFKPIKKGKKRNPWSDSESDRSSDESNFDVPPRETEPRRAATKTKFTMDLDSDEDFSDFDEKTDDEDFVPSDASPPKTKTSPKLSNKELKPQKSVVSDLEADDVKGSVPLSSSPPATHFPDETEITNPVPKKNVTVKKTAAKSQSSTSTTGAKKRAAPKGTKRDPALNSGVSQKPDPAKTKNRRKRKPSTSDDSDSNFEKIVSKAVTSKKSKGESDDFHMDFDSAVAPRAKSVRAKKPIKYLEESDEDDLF

[2] = molecular target: T2, TOPOIIβ (Homo sapiens, UniProt Q02880); experiment: kDNA decatenation assay, TOPOIIβ; assay type: biochemical; conditions: for TOPOIIβ inhibition, in words: decatenation assay;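 on all read-outs here: kinetoplast DNA incubated with one unit of TOPOIIβ at 37 °C for 30 min, decatenated product resolved on 1% agarose gel, inhibition scored from relative band intensity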
T2 construct: purchased Inspiralis
T2 sequence (Q02880 whole entry): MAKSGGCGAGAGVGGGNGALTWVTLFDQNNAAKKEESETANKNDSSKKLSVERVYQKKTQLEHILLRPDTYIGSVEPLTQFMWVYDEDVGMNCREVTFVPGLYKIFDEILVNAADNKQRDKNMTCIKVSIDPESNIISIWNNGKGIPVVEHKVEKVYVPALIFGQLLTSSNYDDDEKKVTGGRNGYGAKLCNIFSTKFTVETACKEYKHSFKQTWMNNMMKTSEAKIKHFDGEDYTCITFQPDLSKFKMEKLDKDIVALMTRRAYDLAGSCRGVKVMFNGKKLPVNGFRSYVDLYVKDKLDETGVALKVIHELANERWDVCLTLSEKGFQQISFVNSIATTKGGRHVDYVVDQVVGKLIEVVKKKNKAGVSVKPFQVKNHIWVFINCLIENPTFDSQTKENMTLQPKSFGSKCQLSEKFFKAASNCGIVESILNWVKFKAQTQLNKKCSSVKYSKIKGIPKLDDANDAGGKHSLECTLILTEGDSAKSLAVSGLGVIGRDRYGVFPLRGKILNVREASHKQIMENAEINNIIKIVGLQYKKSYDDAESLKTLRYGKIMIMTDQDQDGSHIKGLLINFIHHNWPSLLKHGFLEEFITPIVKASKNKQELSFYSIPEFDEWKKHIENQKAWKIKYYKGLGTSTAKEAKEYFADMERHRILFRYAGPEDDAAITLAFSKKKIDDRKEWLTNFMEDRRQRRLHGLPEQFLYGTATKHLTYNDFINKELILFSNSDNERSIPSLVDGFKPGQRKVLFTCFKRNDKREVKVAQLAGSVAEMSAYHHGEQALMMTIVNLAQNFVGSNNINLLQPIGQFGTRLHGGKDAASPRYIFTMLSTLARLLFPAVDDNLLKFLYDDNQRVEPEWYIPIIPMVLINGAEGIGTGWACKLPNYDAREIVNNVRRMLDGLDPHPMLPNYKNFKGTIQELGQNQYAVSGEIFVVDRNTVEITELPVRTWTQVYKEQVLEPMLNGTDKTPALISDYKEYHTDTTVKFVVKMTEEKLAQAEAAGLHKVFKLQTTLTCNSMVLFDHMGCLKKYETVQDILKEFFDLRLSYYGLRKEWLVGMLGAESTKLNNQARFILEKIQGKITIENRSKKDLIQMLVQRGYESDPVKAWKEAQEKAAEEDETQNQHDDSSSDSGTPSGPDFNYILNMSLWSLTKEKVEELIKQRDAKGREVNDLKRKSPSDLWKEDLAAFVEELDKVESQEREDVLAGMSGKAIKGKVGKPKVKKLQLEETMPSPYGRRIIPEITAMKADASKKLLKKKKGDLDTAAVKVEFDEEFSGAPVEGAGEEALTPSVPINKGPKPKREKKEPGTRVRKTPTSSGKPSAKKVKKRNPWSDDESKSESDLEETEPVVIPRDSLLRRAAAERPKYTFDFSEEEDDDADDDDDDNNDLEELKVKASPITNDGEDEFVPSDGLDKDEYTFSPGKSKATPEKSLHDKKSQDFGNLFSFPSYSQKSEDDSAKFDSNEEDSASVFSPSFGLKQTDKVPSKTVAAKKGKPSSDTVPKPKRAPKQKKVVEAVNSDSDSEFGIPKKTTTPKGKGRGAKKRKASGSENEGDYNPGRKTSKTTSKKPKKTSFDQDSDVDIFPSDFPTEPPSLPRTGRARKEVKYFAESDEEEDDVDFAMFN

[3] = system: Doxorubicin treated human iPSC-derived cardiomyocytes; experiment: iPSC-CM protection by myricetin analogs (Table 1); assay type: cell-based; conditions: for EC50 / Emax: Homo sapiens; for Emax: read-out: iPSC-CM protection Max Effect (%); for cardioprotection, in words: Table 1
[4] = system: cardiomyocytes; experiment: cytotoxicity of myricetin analogs to cardiomyocytes (Table 1, Toxicity); conditions: for Toxicity: * = cytotoxicity at 100 μM; for toxic effects at concentrations less than 100 μM / cytotoxicity, in words: Table 1; for cytotoxicity, in words: at 100 μM where stated
[5] = system: cardiomyocytes differentiated from induced pluripotent stem cells; experiment: acute toxicity on electrophysiology, MEA beat period and field potential duration (Example 23); assay type: cell-based; conditions: at least 20 minutes; for difference in beat period or field potential duration vs control samples: lower drug concentration; for acute drug toxicity on beating: higher concentrations
Method: Samples were either mock-treated with 0.1% DMSO, or treated with increasing concentrations of the indicated drug for at least 20 minutes. Cardiomyocytes were treated with the hERG potassium channel blocker E4031 as a control. Following treatment, the beat period and field potential duration (FPD) were measured in each sample using the MEA.

[6] = system: A549 cells; experiment: doxorubicin-mediated death of lung cancer cells, CellTiter-Glo (Example 22); assay type: cell-based; conditions: co-treated with increasing concentrations of doxorubicin, 72 hours
Method: A549 cells (lung cancer) were cultured for 1 day before performing experiments. […] XLFit was used for curve fitting.

[7] = system: MDA-MB-231 cells; conditions: co-treated with increasing concentrations of doxorubicin, 72 hours
[8] = system: cardiomyocytes differentiated from induced pluripotent stem cells; experiment: long term toxicity on electrophysiology, active electrodes (Example 24); assay type: cell-based; conditions: for decrease in the number of active electrodes relative to the mock-treated sample: various concentrations, at least 5 days
Method: Samples were either mock-treated with 0.1% DMSO, or treated with various concentrations of the indicated drug. Following treatment, the percentage of active electrodes in each sample was measured for at least 5 days. Percentage of active electrodes was quantified and graphed in a time course.

[9] = molecular target: topoisomerase IIβ (Homo sapiens, UniProt Q02880); conditions: 100 μM, 24 hours, iPSC-CMs
Chain of topoisomerase IIβ (Q02880 whole entry): as above

[10] = system: Cardiomyocytes (human iPSC-derived); experiment: doxorubicin-induced apoptosis, CellEvent dye, 3 days (Example 4); assay type: cell-based; conditions: Cardiomyocyte, 72 h, co-treated with 1 μM of doxorubicin, read-out: IC50 for protective effects against apoptosis
Method: Cardiomyocytes were prepared as described above. […] Following treatment, the samples were incubated with a CellEvent dye to indicate apoptosis-positive cells, and a second dye to identify cell nuclei.

[11] = system: Human iPSC-derived cardiomyocytes; experiment: DOX-induced DNA double strand break, γH2AX immunostaining; assay type: cell-based; conditions: Homo sapiens, Cardiomyocyte, read-out: IC50, concentration at which DOX-induced double strand break was reduced to 50%; 0.5 μM of doxorubicin, 48 hours
[12] = system: Human iPSC-derived cardiomyocytes; experiment: cells; assay type: cell-based; conditions: Cardiomyocyte, 0.5 μM of Doxorubicin, 72 hours, read-out: EC50 for rescue from DOX-induced cell death
Method: To measure the rescue rates from the DOX-induced cell death in cardiomyocytes, the protective effect of myricetin was directly compared with that of dexraxozane (DEX; standard of care). Human iPSC-derived cardiomyocytes were treated with 0.5 μM of Doxorubicin and increasing concentrations of myricetin (MYR, circle) or dexraxozane (DEX, square). […] Cells were imaged using INCell Analyzer2200 (GE). […] (n=3).
Next, the ability of MYR to confer cardioprotection was directly compared with that of DHM as these two compounds display distinctive property in their structures and TOPOI inhibition activity. […] Human iPSC-derived cardiomyocytes were treated with 0.5 μM of Doxorubicin and increasing concentrations of myricetin (MYR, circle) or dihydromyricetin (DHM, triangle).

[13] = iPSC-CM, read-out: iPSC-CM protection EC50
[14] = even at extreme concentrations (>200 μM)

TOPOIIα inhibition, in words [1]: high level of inhibition
TOPOIIβ inhibition, in words [2]: high level of inhibition
SMILES: O=c1c(O)c(-c2cc(O)c(O)c(O)c2)oc2cc(O)ccc12 [Compound 2, 3,7,3′,4′,5′-pentahydroxyflavone]
EC50 ([3]; Cardiomyocyte, approximate, read-out: EC50 for cardioprotection): 10 to 20 µM
EC50 [3, 13]: 12.6 µM
Emax ([3]; iPSC-CM): 64%
Toxicity [4]: −

SMILES: O=c1cc(-c2cc(O)c(O)c(O)c2)oc2cc(O)cc(O)c12 [Compound 3, 5,7,3′,4′,5′-pentahydroxyflavone]
TOPOIIα inhibition, in words [1]: displayed cardioprotection and TOPOII inhibition
TOPOIIβ inhibition, in words [2]: displayed cardioprotection and TOPOII inhibition
EC50 [3, 13]: 17.2 µM
Emax ([3]; iPSC-CM): 56%
cardioprotection, in words [3]: displayed cardioprotection
toxic effects at concentrations less than 100 μM [4]: some toxic effects
cytotoxicity, in words [4]: low level of cytotoxicity

SMILES: O=c1c(O)c(-c2ccc(O)c(O)c2)oc2cc(O)cc(O)c12 [Compound 4, 3,5,7,3′,4′-pentahydroxyflavone]
TOPOIIα inhibition, in words [1]: exhibited TOPOII inhibition
TOPOIIβ inhibition, in words [2]: exhibited TOPOII inhibition
EC50 [3, 13]: 20.5 µM
Emax ([3]; iPSC-CM): 58%
cardioprotection, in words [3]: conferred cardioprotection
cytotoxicity, in words [4]: high level of general cytoxicity

TOPIIα Inhibition [1]: −
TOPOIIα inhibition, in words [1]: did not inhibit TOPOII enzymes
TOPIIβ Inhibition [2]: −
TOPOIIβ inhibition, in words [2]: did not inhibit TOPOII enzymes
SMILES: O=c1cc(-c2cc(O)c(O)c(O)c2)oc2cc(O)ccc12 [Compound 6, 7,3′4′,5′-tetrahydroxyflavone]
EC50 [3, 13]: 17.1 µM
Emax ([3]; iPSC-CM): 71%
cardioprotection, in words [3]: displayed cardioprotection
Toxicity [4]: −

SMILES: O=c1ccoc2cc(O)ccc12 [Compound 7-hydroxy-4-chromone, 7-hydroxy-4-chromone]
TOPOIIα inhibition, in words [1]: Nor did either compound confer TOPOIIβ or a inhibition
TOPOIIβ inhibition, in words [2]: Nor did either compound confer TOPOIIβ or a inhibition
cardioprotection, in words [3]: no positive effect
cytotoxicity, in words [4]: high level of cytotoxicity

TOPIIα Inhibition [1]: −
TOPIIβ Inhibition [2]: −
SMILES: O=c1cc(-c2cc(O)c(O)c(O)c2)oc2ccccc12 [Compound 8, 3′,4′,5′-trihydroxyflavone]
Rescue [3]: +
EC50 [3, 13]: 43 µM
Emax ([3]; iPSC-CM): 64%
Toxicity [4]: −

TOPIIα Inhibition [1]: −
TOPIIβ Inhibition [2]: −
SMILES: O=c1c(O)c(-c2ccc(O)cc2)oc2cc(O)ccc12 [Compound 10, 3,7,4′-trihydroxyflavone]
Rescue [3]: +
EC50 [3, 13]: 3.26 µM
Emax ([3]; iPSC-CM): 27%
toxic effects at concentrations less than 100 μM [4]: exhibited toxic effects

SMILES: CC(=O)N[C@@H](CS)C(=O)O [N-acetyl cysteine]
difference in beat period or field potential duration vs control samples [5]: no appreciable difference
difference in the percentage of cell death vs doxorubicin without protective agent [6]: no significant difference
difference in the percentage of cell death vs doxorubicin without protective agent [7]: no significant difference

SMILES: Nc1c(Br)cc(Br)cc1CN[C@H]1CC[C@H](O)CC1 [ambroxol]
difference in beat period or field potential duration vs control samples [5]: no appreciable difference
difference in the percentage of cell death vs doxorubicin without protective agent [6]: no significant difference
decrease in the number of active electrodes relative to the mock-treated sample [8]: no observable decrease
difference in the percentage of cell death vs doxorubicin without protective agent [7]: no significant difference

SMILES: C[C@H](CCC(=O)O)[C@H]1CC[C@H]2[C@@H]3[C@H](O)C[C@@H]4C[C@H](O)CC[C@]4(C)[C@H]3CC[C@]12C [chenodeoxycholic acid]
acute drug toxicity on beating [5]: beating cessation
difference in beat period or field potential duration vs control samples [5]: no appreciable difference

SMILES: CC(=O)N(O)CCCCCNC(=O)CCC(=O)N(O)CCCCCNC(=O)CCC(=O)N(O)CCCCCN [deferoxamine]
difference in beat period or field potential duration vs control samples [5]: no appreciable difference

topoisomerase IIβ protein levels [9]: marked disappearance of TOPOIIβ
SMILES: C[C@@H](CN1CC(=O)NC(=O)C1)N1CC(=O)NC(=O)C1 [dexrazoxane]
difference in beat period or field potential duration vs control samples [5]: no appreciable difference
difference in the percentage of cell death vs doxorubicin without protective agent [6]: no significant difference
reduction in the number of active electrodes ([8]; 167 μM dexrazoxane, about 2 days post-treatment): ~25%
reduction in the number of active electrodes ([8]; 167 μM dexrazoxane, about 3 days post-treatment): ~50%
reduction in the number of active electrodes ([8]; 500 μM dexrazoxane, about 2 days post-treatment): ~50%
reduction in the number of active electrodes ([8]; 500 μM dexrazoxane, about 3 days post-treatment): ~100%
difference in the percentage of cell death vs doxorubicin without protective agent [7]: no significant difference

TOPOIIα enzymatic activity inhibition [1, 14]: did not inhibit
TOPOIIβ enzymatic activity inhibition [2, 14]: did not inhibit
SMILES: O=C1c2c(O)cc(O)cc2O[C@H](c2cc(O)c(O)c(O)c2)[C@H]1O [dihydromyricetin]
IC50 [10]: 40.5 µM
IC50 [11]: 11.3 µM
EC50 [12]: 14 µM

SMILES: Nc1ccc(O)c(C(=O)O)c1 [mesalamine]
difference in the percentage of cell death vs doxorubicin without protective agent [6]: no significant difference
decrease in the number of active electrodes relative to the mock-treated sample [8]: no observable decrease
difference in the percentage of cell death vs doxorubicin without protective agent [7]: no significant difference

SMILES: C[C@@H]1O[C@@H](Oc2c(-c3cc(O)c(O)c(O)c3)oc3cc(O)cc(O)c3c2=O)[C@H](O)[C@H](O)[C@H]1O [myricitrin]
IC50 [10]: 38.5 µM

SMILES: O=C1C[C@@H](c2ccc(O)cc2)Oc2cc(O)cc(O)c21 [naringenin]
acute drug toxicity on beating [5]: beating cessation
difference in beat period or field potential duration vs control samples [5]: no appreciable difference
